According to US20200246277A1, “Composition For Alleviating, Preventing Or Treating Premenstrual Syndrome, Containing, As Active Ingredient, Pinitol, D-Chiro-Inositol Or Analog Compound Thereof” (DY NATURAL CO., LTD., priority 2015, published 2020):
“Also recorded” adds a separate entry of the source.

Test system: premenstrual syndrome
Experiment: Blind test with questionnaire survey: alleviating effect on premenstrual syndrome, once a day for eight weeks
Format: in vivo, women
Settings: for share of group with somewhat or significant alleviation of the main symptoms of premenstrual syndrome: administration group of 600 mg, across main symptoms; for share of group that answered alleviation in the main symptoms / share of group that did not feel changes in the main symptoms of premenstrual syndrome: administration group of 1,200 mg or 2,400 mg; for alleviation, percentage / alleviation, the number of people / complete alleviation, percentage / complete alleviation, the number of people / no change, percentage / no change, the number of people / significant alleviation, percentage / significant alleviation, the number of people: eight weeks; for effect on the main symptoms of premenstrual syndrome (dysmenorrhea, period of dysmenorrhea, coldness of hands and feet), in words: daily dose of 600 mg, 1,200 mg, and 2,400 mg
Excerpt: 1. Evaluation of Administration of Pinitol or D-Chiro-Inositol to Female Subject Pinitol and D-chiro-inositol were purchased from Biosearch Life (Camino de Purchil, 66. 18004 Granada, Spain). Selected as experiment subjects were 80 normal women of reproductive age, that is, 80 women at the age of 25-40 who had neither skipped three or more cycles of menstruation, nor been administered with a contraceptive pill, and nor received a psychiatric treatment. Of them, 40 persons were classified into four groups of 10 which were then administered respectively with a placebo free of pinitol and having no pharmaceutical effects and with pinitol at three different doses. Likewise, the remaining 40 persons were equally divided into one placebo group and three experimental groups to which D-chiro-inositol was administered at three different doses, respectively. A blind test was conducted in which the placebo and pinitol or D-chiro-inositol was administered once a day for eight weeks. Pinitol or D-chiro-inositol was administered at daily doses of 600 mg, 1,200 mg, and 2,400 mg for eight weeks. A survey was made of the experimental subjects before and after the clinical test of placebo and pinitol or D-chiro-inositol to evaluate the alleviating effect of pinitol or D-chiro-inositol on premenstrual syndrome. 2. Survey In the present disclosure, the questionnaire that experimental subjects had completed with respect to the severity of premenstrual syndrome were analyzed. The experimental subjects evaluated the placebo, pinitol, or D-chiro-inositol for a pharmacological effect on premenstrual syndrome on the basis of four grades: complete alleviation, significant alleviation, somewhat alleviation, and no change for dysmenorrhea, a period of dysmenorrhea, and coldness of hands and feet. [table]

[1] = administration group of 1,200 mg
[2] = administration group of 2,400 mg
[3] = coldness of hands and feet, 600 mg a day
[4] = coldness of hands and feet, 1,200 mg a day
[5] = coldness of hands and feet, 2,400 mg a day
[6] = period of dysmenorrhea, 600 mg a day
[7] = period of dysmenorrhea, 1,200 mg a day
[8] = period of dysmenorrhea, 2,400 mg a day

SMILES: O[C@H]1[C@H](O)[C@H](O)[C@@H](O)[C@H](O)[C@H]1O [DCI, D-chiro-inositol]
- share of group with somewhat or significant alleviation of the main symptoms of premenstrual syndrome: 50-60%
- share of group with complete alleviation of the main symptoms [1]: ≥ 50%
- share of group that answered alleviation in the main symptoms: 80-90%
- share of group that did not feel changes in the main symptoms of premenstrual syndrome: 10%
- share of group with complete alleviation of the main symptoms [2]: 70-80%
- alleviation, percentage [3]: 30.0%
- alleviation, the number of people [3]: 3 person
- complete alleviation, percentage [3]: 0.0%
- complete alleviation, the number of people [3]: 0 person
- no change, percentage [3]: 50.0%
- no change, the number of people [3]: 5 person
- significant alleviation, percentage [3]: 20.0%
- significant alleviation, the number of people [3]: 2 person
- alleviation, percentage [4]: 20.0%
- alleviation, the number of people [4]: 2 person
- complete alleviation, percentage [4]: 50.0%
- complete alleviation, the number of people [4]: 5 person
- no change, percentage [4]: 10.0%
- no change, the number of people [4]: 1 person
- significant alleviation, percentage [4]: 20.0%
- significant alleviation, the number of people [4]: 2 person
- alleviation, percentage [5]: 0.0%
- alleviation, the number of people [5]: 0 person
- complete alleviation, percentage [5]: 80.0%
- complete alleviation, the number of people [5]: 8 person
- no change, percentage [5]: 10.0%
- no change, the number of people [5]: 1 person
- significant alleviation, percentage [5]: 10.0%
- significant alleviation, the number of people [5]: 1 person
- effect on the main symptoms of premenstrual syndrome (dysmenorrhea, period of dysmenorrhea, coldness of hands and feet), in words: Significant reductions; also recorded: significantly alleviating
- alleviation, percentage (dysmenorrhea, 600 mg a day): 20.0%
- alleviation, the number of people (dysmenorrhea, 600 mg a day): 2 person
- complete alleviation, percentage (dysmenorrhea, 600 mg a day): 0.0%
- complete alleviation, the number of people (dysmenorrhea, 600 mg a day): 0 person
- no change, percentage (dysmenorrhea, 600 mg a day): 40.0%
- no change, the number of people (dysmenorrhea, 600 mg a day): 4 person
- significant alleviation, percentage (dysmenorrhea, 600 mg a day): 40.0%
- significant alleviation, the number of people (dysmenorrhea, 600 mg a day): 4 person
- alleviation, percentage (dysmenorrhea, 1,200 mg a day): 20.0%
- alleviation, the number of people (dysmenorrhea, 1,200 mg a day): 2 person
- complete alleviation, percentage (dysmenorrhea, 1,200 mg a day): 50.0%
- complete alleviation, the number of people (dysmenorrhea, 1,200 mg a day): 5 person
- no change, percentage (dysmenorrhea, 1,200 mg a day): 0.0%
- no change, the number of people (dysmenorrhea, 1,200 mg a day): 0 person
- significant alleviation, percentage (dysmenorrhea, 1,200 mg a day): 30.0%
- significant alleviation, the number of people (dysmenorrhea, 1,200 mg a day): 3 person
- alleviation, percentage (dysmenorrhea, 2,400 mg a day): 0.0%
- alleviation, the number of people (dysmenorrhea, 2,400 mg a day): 0 person
- complete alleviation, percentage (dysmenorrhea, 2,400 mg a day): 90.0%
- complete alleviation, the number of people (dysmenorrhea, 2,400 mg a day): 9 person
- no change, percentage (dysmenorrhea, 2,400 mg a day): 0.0%
- no change, the number of people (dysmenorrhea, 2,400 mg a day): 0 person
- significant alleviation, percentage (dysmenorrhea, 2,400 mg a day): 10.0%
- significant alleviation, the number of people (dysmenorrhea, 2,400 mg a day): 1 person
- alleviation, percentage [6]: 20.0%
- alleviation, the number of people [6]: 2 person
- complete alleviation, percentage [6]: 0.0%
- complete alleviation, the number of people [6]: 0 person
- no change, percentage [6]: 50.0%
- no change, the number of people [6]: 5 person
- significant alleviation, percentage [6]: 30.0%
- significant alleviation, the number of people [6]: 3 person
- alleviation, percentage [7]: 10.0%
- alleviation, the number of people [7]: 1 person
- complete alleviation, percentage [7]: 60.0%
- complete alleviation, the number of people [7]: 6 person
- no change, percentage [7]: 10.0%
- no change, the number of people [7]: 1 person
- significant alleviation, percentage [7]: 20.0%
- significant alleviation, the number of people [7]: 2 person
- alleviation, percentage [8]: 0.0%
- alleviation, the number of people [8]: 0 person
- complete alleviation, percentage [8]: 80.0%
- complete alleviation, the number of people [8]: 8 person
- no change, percentage [8]: 0.0%
- no change, the number of people [8]: 0 person
- significant alleviation, percentage [8]: 20.0%
- significant alleviation, the number of people [8]: 2 person

SMILES: CO[C@H]1[C@H](O)[C@@H](O)[C@@H](O)[C@H](O)[C@@H]1O [Pinitol, pinitol]
- share of group with somewhat or significant alleviation of the main symptoms of premenstrual syndrome: 50-60%
- share of group with complete alleviation of the main symptoms [1]: ≥ 50%
- share of group that answered alleviation in the main symptoms: 80-90%
- share of group that did not feel changes in the main symptoms of premenstrual syndrome: 10%
- share of group with complete alleviation of the main symptoms [2]: 70-80%
- alleviation, percentage [3]: 40.0%
- alleviation, the number of people [3]: 4 person
- complete alleviation, percentage [3]: 0.0%
- complete alleviation, the number of people [3]: 0 person
- no change, percentage [3]: 50.0%
- no change, the number of people [3]: 5 person
- significant alleviation, percentage [3]: 10.0%
- significant alleviation, the number of people [3]: 1 person
- alleviation, percentage [4]: 10.0%
- alleviation, the number of people [4]: 1 person
- complete alleviation, percentage [4]: 40.0%
- complete alleviation, the number of people [4]: 4 person
- no change, percentage [4]: 20.0%
- no change, the number of people [4]: 2 person
- significant alleviation, percentage [4]: 30.0%
- significant alleviation, the number of people [4]: 3 person
- alleviation, percentage [5]: 10.0%
- alleviation, the number of people [5]: 1 person
- complete alleviation, percentage [5]: 70.0%
- complete alleviation, the number of people [5]: 7 person
- no change, percentage [5]: 10.0%
- no change, the number of people [5]: 1 person
- significant alleviation, percentage [5]: 10.0%
- significant alleviation, the number of people [5]: 1 person
- effect on the main symptoms of premenstrual syndrome (dysmenorrhea, period of dysmenorrhea, coldness of hands and feet), in words: Significant reductions; also recorded: significantly alleviating
- alleviation, percentage (dysmenorrhea, 600 mg a day): 30.0%
- alleviation, the number of people (dysmenorrhea, 600 mg a day): 3 person
- complete alleviation, percentage (dysmenorrhea, 600 mg a day): 0.0%
- complete alleviation, the number of people (dysmenorrhea, 600 mg a day): 0 person
- no change, percentage (dysmenorrhea, 600 mg a day): 40.0%
- no change, the number of people (dysmenorrhea, 600 mg a day): 4 person
- significant alleviation, percentage (dysmenorrhea, 600 mg a day): 30.0%
- significant alleviation, the number of people (dysmenorrhea, 600 mg a day): 3 person
- alleviation, percentage (dysmenorrhea, 1,200 mg a day): 10.0%
- alleviation, the number of people (dysmenorrhea, 1,200 mg a day): 1 person
- complete alleviation, percentage (dysmenorrhea, 1,200 mg a day): 60.0%
- complete alleviation, the number of people (dysmenorrhea, 1,200 mg a day): 6 person
- no change, percentage (dysmenorrhea, 1,200 mg a day): 10.0%
- no change, the number of people (dysmenorrhea, 1,200 mg a day): 1 person
- significant alleviation, percentage (dysmenorrhea, 1,200 mg a day): 20.0%
- significant alleviation, the number of people (dysmenorrhea, 1,200 mg a day): 2 person
- alleviation, percentage (dysmenorrhea, 2,400 mg a day): 0.0%
- alleviation, the number of people (dysmenorrhea, 2,400 mg a day): 0 person
- complete alleviation, percentage (dysmenorrhea, 2,400 mg a day): 80.0%
- complete alleviation, the number of people (dysmenorrhea, 2,400 mg a day): 8 person
- no change, percentage (dysmenorrhea, 2,400 mg a day): 0.0%
- no change, the number of people (dysmenorrhea, 2,400 mg a day): 0 person
- significant alleviation, percentage (dysmenorrhea, 2,400 mg a day): 20.0%
- significant alleviation, the number of people (dysmenorrhea, 2,400 mg a day): 2 person
- alleviation, percentage [6]: 20.0%
- alleviation, the number of people [6]: 2 person
- complete alleviation, percentage [6]: 0.0%
- complete alleviation, the number of people [6]: 0 person
- no change, percentage [6]: 50.0%
- no change, the number of people [6]: 5 person
- significant alleviation, percentage [6]: 30.0%
- significant alleviation, the number of people [6]: 3 person
- alleviation, percentage [7]: 20.0%
- alleviation, the number of people [7]: 2 person
- complete alleviation, percentage [7]: 50.0%
- complete alleviation, the number of people [7]: 5 person
- no change, percentage [7]: 10.0%
- no change, the number of people [7]: 1 person
- significant alleviation, percentage [7]: 20.0%
- significant alleviation, the number of people [7]: 2 person
- alleviation, percentage [8]: 0.0%
- alleviation, the number of people [8]: 0 person
- complete alleviation, percentage [8]: 80.0%
- complete alleviation, the number of people [8]: 8 person
- no change, percentage [8]: 0.0%
- no change, the number of people [8]: 0 person
- significant alleviation, percentage [8]: 20.0%
- significant alleviation, the number of people [8]: 2 person
